From PubChem BioAssay (NCI)
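Growth conditions: 96-well plates. Treatment: test compound, 48 hours, 5 concentrations. Analysis: linear interpolation between bracketing concentrations; unreached endpoints set to highest concentration. TGI marks complete inhibition of growth.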

tested on: HCC-2998 colon; experiment: inhibition of tumour cell growth, NCI panel, 48 h

**Q.** With `Nc1cnc(Nc2cccc3ccccc23)o1` as the molecule, how does the TGI read?
**A.** > 10 µM

**Q.** How did the TGI turn out when `COC(=O)C1=CC(=O)OC1(OO)c1ccc(Br)cc1` (stereo unspecified) was run?
**A.** > 100 µM

**Q.** How did the TGI turn out when `C[Si](C)(C)CNC(=O)OCc1ccccc1` was run?
**A.** > 100 µM

**Q.** With `COc1cccc(-c2nc(-c3cnccn3)n(C3OC(CO)C(O)C3O)n2)c1` (stereo unspecified) as the molecule, how does the TGI read?
**A.** > 100 µM

**Q.** How did the TGI turn out when `CC1(C)COC(c2ccccc2-c2ccccc2)=N1` was run?
**A.** > 100 µM

tested on: DU-145 prostate; experiment: inhibition of tumour cell growth, NCI panel, 48 h

**Q.** How did the TGI turn out when `Nc1cnc(Nc2cccc3ccccc23)o1` was run?
**A.** > 10 µM

**Q.** For `COC(=O)C1=CC(=O)OC1(OO)c1ccc(Br)cc1` (stereo unspecified), which TGI is on record?
**A.** > 100 µM

**Q.** How did the TGI turn out when `C[Si](C)(C)CNC(=O)OCc1ccccc1` was run?
**A.** > 100 µM

**Q.** How did the TGI turn out when `COc1cccc(-c2nc(-c3cnccn3)n(C3OC(CO)C(O)C3O)n2)c1` (stereo unspecified) was run?
**A.** > 100 µM

**Q.** Which TGI does the source give for `CC1(C)COC(c2ccccc2-c2ccccc2)=N1` here?
**A.** > 100 µM

tested on: UO-31 renal; experiment: inhibition of tumour cell growth, NCI panel, 48 h

**Q.** Which TGI does the source give for `Nc1cnc(Nc2cccc3ccccc23)o1` here?
**A.** > 10 µM

**Q.** Which TGI does the source give for `COC(=O)C1=CC(=O)OC1(OO)c1ccc(Br)cc1` (stereo unspecified) here?
**A.** > 100 µM

**Q.** Which TGI does the source give for `C[Si](C)(C)CNC(=O)OCc1ccccc1` here?
**A.** > 100 µM

**Q.** Which TGI does the source give for `COc1cccc(-c2nc(-c3cnccn3)n(C3OC(CO)C(O)C3O)n2)c1` (stereo unspecified) here?
**A.** > 100 µM

**Q.** Which TGI does the source give for `CC1(C)COC(c2ccccc2-c2ccccc2)=N1` here?
**A.** > 100 µM

tested on: A549 NSCLC; experiment: inhibition of tumour cell growth, NCI panel, 48 h

**Q.** For `Nc1cnc(Nc2cccc3ccccc23)o1`, which TGI is on record?
**A.** > 10 µM

**Q.** Which TGI does the source give for `COC(=O)C1=CC(=O)OC1(OO)c1ccc(Br)cc1` (stereo unspecified) here?
**A.** > 100 µM

**Q.** Which TGI does the source give for `C[Si](C)(C)CNC(=O)OCc1ccccc1` here?
**A.** > 100 µM

**Q.** Which TGI does the source give for `COc1cccc(-c2nc(-c3cnccn3)n(C3OC(CO)C(O)C3O)n2)c1` (stereo unspecified) here?
**A.** > 100 µM

**Q.** `CC1(C)COC(c2ccccc2-c2ccccc2)=N1` was tested. Which TGI did it give?
**A.** > 100 µM

tested on: NCI/ADR-RES ovarian; experiment: inhibition of tumour cell growth, NCI panel, 48 h

**Q.** For `Nc1cnc(Nc2cccc3ccccc23)o1`, which TGI is on record?
**A.** > 10 µM

**Q.** `COC(=O)C1=CC(=O)OC1(OO)c1ccc(Br)cc1` (stereo unspecified) was tested. Which TGI did it give?
**A.** > 100 µM

**Q.** For `C[Si](C)(C)CNC(=O)OCc1ccccc1`, which TGI is on record?
**A.** > 100 µM

**Q.** `COc1cccc(-c2nc(-c3cnccn3)n(C3OC(CO)C(O)C3O)n2)c1` (stereo unspecified) was tested. Which TGI did it give?
**A.** > 100 µM

**Q.** `CC1(C)COC(c2ccccc2-c2ccccc2)=N1` was tested. Which TGI did it give?
**A.** > 100 µM

tested on: SN12C renal; experiment: inhibition of tumour cell growth, NCI panel, 48 h

**Q.** `Nc1cnc(Nc2cccc3ccccc23)o1` was tested. Which TGI did it give?
**A.** > 10 µM

**Q.** `COC(=O)C1=CC(=O)OC1(OO)c1ccc(Br)cc1` (stereo unspecified) was tested. Which TGI did it give?
**A.** > 100 µM

**Q.** For `C[Si](C)(C)CNC(=O)OCc1ccccc1`, which TGI is on record?
**A.** > 100 µM

**Q.** How did the TGI turn out when `COc1cccc(-c2nc(-c3cnccn3)n(C3OC(CO)C(O)C3O)n2)c1` (stereo unspecified) was run?
**A.** > 100 µM

**Q.** How did the TGI turn out when `CC1(C)COC(c2ccccc2-c2ccccc2)=N1` was run?
**A.** > 100 µM

tested on: M14 melanoma; experiment: inhibition of tumour cell growth, NCI panel, 48 h

**Q.** How did the TGI turn out when `Nc1cnc(Nc2cccc3ccccc23)o1` was run?
**A.** > 10 µM

**Q.** Which TGI does the source give for `COC(=O)C1=CC(=O)OC1(OO)c1ccc(Br)cc1` (stereo unspecified) here?
**A.** > 100 µM

**Q.** Which TGI does the source give for `C[Si](C)(C)CNC(=O)OCc1ccccc1` here?
**A.** > 100 µM

**Q.** `COc1cccc(-c2nc(-c3cnccn3)n(C3OC(CO)C(O)C3O)n2)c1` (stereo unspecified) was tested. Which TGI did it give?
**A.** > 100 µM

**Q.** `CC1(C)COC(c2ccccc2-c2ccccc2)=N1` was tested. Which TGI did it give?
**A.** > 100 µM

tested on: MDA-MB-231 breast; experiment: inhibition of tumour cell growth, NCI panel, 48 h

**Q.** With `Nc1cnc(Nc2cccc3ccccc23)o1` as the molecule, how does the TGI read?
**A.** > 10 µM

**Q.** How did the TGI turn out when `COC(=O)C1=CC(=O)OC1(OO)c1ccc(Br)cc1` (stereo unspecified) was run?
**A.** > 100 µM

**Q.** `C[Si](C)(C)CNC(=O)OCc1ccccc1` was tested. Which TGI did it give?
**A.** > 100 µM

**Q.** Which TGI does the source give for `COc1cccc(-c2nc(-c3cnccn3)n(C3OC(CO)C(O)C3O)n2)c1` (stereo unspecified) here?
**A.** > 100 µM

**Q.** With `CC1(C)COC(c2ccccc2-c2ccccc2)=N1` as the molecule, how does the TGI read?
**A.** > 100 µM

tested on: HCT-116 colon; experiment: inhibition of tumour cell growth, NCI panel, 48 h

**Q.** How did the TGI turn out when `Nc1cnc(Nc2cccc3ccccc23)o1` was run?
**A.** > 10 µM

**Q.** With `COC(=O)C1=CC(=O)OC1(OO)c1ccc(Br)cc1` (stereo unspecified) as the molecule, how does the TGI read?
**A.** > 100 µM

**Q.** For `C[Si](C)(C)CNC(=O)OCc1ccccc1`, which TGI is on record?
**A.** > 100 µM

**Q.** How did the TGI turn out when `COc1cccc(-c2nc(-c3cnccn3)n(C3OC(CO)C(O)C3O)n2)c1` (stereo unspecified) was run?
**A.** > 100 µM

**Q.** For `CC1(C)COC(c2ccccc2-c2ccccc2)=N1`, which TGI is on record?
**A.** > 100 µM

tested on: RXF 393 renal; experiment: inhibition of tumour cell growth, NCI panel, 48 h

**Q.** Which TGI does the source give for `Nc1cnc(Nc2cccc3ccccc23)o1` here?
**A.** > 10 µM

**Q.** With `COC(=O)C1=CC(=O)OC1(OO)c1ccc(Br)cc1` (stereo unspecified) as the molecule, how does the TGI read?
**A.** > 100 µM

**Q.** How did the TGI turn out when `CC1(C)COC(c2ccccc2-c2ccccc2)=N1` was run?
**A.** > 100 µM

tested on: CCRF-CEM leukemia; experiment: inhibition of tumour cell growth, NCI panel, 48 h

**Q.** For `Nc1cnc(Nc2cccc3ccccc23)o1`, which TGI is on record?
**A.** > 10 µM

**Q.** For `COC(=O)C1=CC(=O)OC1(OO)c1ccc(Br)cc1` (stereo unspecified), which TGI is on record?
**A.** > 100 µM

**Q.** For `C[Si](C)(C)CNC(=O)OCc1ccccc1`, which TGI is on record?
**A.** > 100 µM

**Q.** Which TGI does the source give for `COc1cccc(-c2nc(-c3cnccn3)n(C3OC(CO)C(O)C3O)n2)c1` (stereo unspecified) here?
**A.** > 100 µM

**Q.** `CC1(C)COC(c2ccccc2-c2ccccc2)=N1` was tested. Which TGI did it give?
**A.** > 100 µM

tested on: NCI-H522 lung; experiment: inhibition of tumour cell growth, NCI panel, 48 h

**Q.** How did the TGI turn out when `Nc1cnc(Nc2cccc3ccccc23)o1` was run?
**A.** > 10 µM

**Q.** With `COC(=O)C1=CC(=O)OC1(OO)c1ccc(Br)cc1` (stereo unspecified) as the molecule, how does the TGI read?
**A.** > 100 µM

**Q.** For `C[Si](C)(C)CNC(=O)OCc1ccccc1`, which TGI is on record?
**A.** > 100 µM

**Q.** Which TGI does the source give for `COc1cccc(-c2nc(-c3cnccn3)n(C3OC(CO)C(O)C3O)n2)c1` (stereo unspecified) here?
**A.** > 100 µM

**Q.** With `CC1(C)COC(c2ccccc2-c2ccccc2)=N1` as the molecule, how does the TGI read?
**A.** > 100 µM

tested on: OVCAR-4 ovarian; experiment: inhibition of tumour cell growth, NCI panel, 48 h

**Q.** Which TGI does the source give for `Nc1cnc(Nc2cccc3ccccc23)o1` here?
**A.** > 10 µM

**Q.** `COC(=O)C1=CC(=O)OC1(OO)c1ccc(Br)cc1` (stereo unspecified) was tested. Which TGI did it give?
**A.** > 100 µM

**Q.** Which TGI does the source give for `C[Si](C)(C)CNC(=O)OCc1ccccc1` here?
**A.** > 100 µM

**Q.** `COc1cccc(-c2nc(-c3cnccn3)n(C3OC(CO)C(O)C3O)n2)c1` (stereo unspecified) was tested. Which TGI did it give?
**A.** > 100 µM

**Q.** `CC1(C)COC(c2ccccc2-c2ccccc2)=N1` was tested. Which TGI did it give?
**A.** > 100 µM

tested on: NCI-H23 lung; experiment: inhibition of tumour cell growth, NCI panel, 48 h

**Q.** For `Nc1cnc(Nc2cccc3ccccc23)o1`, which TGI is on record?
**A.** > 10 µM

**Q.** For `COC(=O)C1=CC(=O)OC1(OO)c1ccc(Br)cc1` (stereo unspecified), which TGI is on record?
**A.** > 100 µM

**Q.** Which TGI does the source give for `C[Si](C)(C)CNC(=O)OCc1ccccc1` here?
**A.** > 100 µM
